≈ marks a conversion by molar mass, not a printed value. Where “and” joins values, the source holds several entries; their conditions need not be identical. Equal values may be shown once. Read-outs that look alike come from different tables or passages of the source.
How the values were obtained:
[1] = tested on: A2780cis cells; test: MTT assay, cytotoxicity against A2780cis; format: cell-based, human
Procedure: (§1) HeLa, Saos-2, HS-5, HepG2, T98G, and A2780 cells were purchased from American-type Culture Collection (ATCC, USA). A2780cis cell was purchased from Sigma. HeLa cells, HepG-2 cells, and T98G cells were cultured in MEM Medium supplemented with 10% v/v fetal bovine serum, 100 U/mL penicillin, and 100 μg/mL streptomycin. Saos-2 cells were cultured in McCoy's 5a Medium (for Saos-2) supplemented with 15% v/v fetal bovine serum, 100 U/mL penicillin, and 100 μg/mL streptomycin. HS-5 cells were cultured in Dulbecco's Modified Eagle's medium (DMEM) supplemented with 10% v fetal bovine serum (FBS), 100 U/mL penicillin, and 100 μg/mL streptomycin. A2780cis cells were cultured in RPMI 1640 Medium supplemented with 10% v/v fetal bovine serum, 100 U/mL penicillin, and 100 μg/mL streptomycin (cisplatin only necessary every 2-3 passages). All cells were maintained at 37° C. in a humidified atmosphere of 5% CO2.
(§2) An MTT assay was used to test the cytotoxicity. All different cell lines were seeded in 96-well plates at 1×10^5 cells/well for 24 hours followed by removal of the culture medium and subsequent addition of culture medium containing different concentrations of the precursors. At designated time (24/48/72 hours), 10 μL MTT solution (5 mg/mL) was added to each well and incubated at 37° C. for another 4 hours, and then 100 μL of SDS-HCl solution was added to stop the reduction reaction and dissolve the purple formazan. The absorbance of each well at 595 nm was measured by a multimode microplate reader. The cytotoxicity assay was performed three times and the average value of the three measurements was taken.
The activity of conjugate 1a against a platinum-resistant, ovarian cancer cell line (A2780cis) (Behrens et al., “Characterization of a Cis-Diamminedichloroplatinum(Ii)-Resistant Human Ovarian Cancer Cell Line and its Use in Evaluation of Platinum Analogues,” Cancer Res. 47:414 (1987); Masuda et al., “Increased DNA Repair as a Mechanism of Acquired Resistance to Cis-Diamminedichloroplatinum (II) in Human Ovarian Cancer Cell Lines,” Cancer Res. 48:5713 (1988), which are hereby incorporated by reference in their entirety) was first examined. To assess the efficacy of conjugate 1a, the assay was carried out in parallel using the known, clinically used cytotoxic agent, cisplatin.

[2] = tested on: HepG2 human liver carcinoma cells; test: MTT assay, cell viability of HepG2; format: cell-based; details: read-out: IC50 against HepG-2
Procedure: as §1
An MTT assay was used to test the cytotoxicity. All different cell lines were seeded in 96-well plates at 1×10^5 cells/well for 24 hours followed by removal of the culture medium and subsequent addition of culture medium containing different concentrations of the precursors. […] The absorbance of each well at 595 nm was measured by a multimode microplate reader. […]

[3] = tested on: Kuramochi ovarian cancer cells; test: MTT assay, cell viability of Kuramochi; format: cell-based; details: read-out: IC50 against Kuramochi
Procedure: as §2
Additional cell viability assays were carried out using conjugates 1a and 1b, optionally with 3, against HepG2 human liver carcinoma cells, Saos-2 osteosarcoma cells, T98G glioblastoma cells, HS-5 (normal bone marrow stromal cells), A2780 ovarian cancer cells (parental line to A2780cis), and Kuramochi ovarian cancer cells. Conjugate 1a was particularly effective against ovarian and cervical cancer cells.

[4] = tested on: A2780 cell line; test: Cell viability of unstimulated or selected A2780 cell line (acquired resistance); format: cell-based; details: after five weeks treatment with gradually increased concentrations; 24, 48, 72 h
Procedure: as §2
The activity of 1a against non-drug resistant cancer cells was assessed using the A2780 cell line.

[5] = tested on: cell death receptors (CD95, DR3, DR5, TNFR1, TNFR2) on A2780cis cells; test: Antibody staining of cell death receptors (CLSM); format: cell-based, human; details: 1a 12.5 μM, 12 or 24 hours
Procedure: Procedure recommended by ABCAM for antibody staining was used. Cells were seeded (100,000-200,000 cell/3.5 cm confocal dish) and attachment was allowed (24 hours). Cells were incubated with 12.5 μM of precursor 1a for 12 hours or 24 hours. Then the cells were washed with PBS buffer three times and fixed by 4% formaldehyde for 15 minutes. Fixed cells were then washed with PBS buffer three times and incubated in 1.0% BSA/10% normal goat serum/0.3M glycine in 0.1% PBS-Tween for 1 hour to permeabilize the cells and block non-specific protein-protein interactions. Then they were washed with PBS buffer three times and incubated with the primary antibody (diluted 1/100, overnight at 4° C.). Then they were washed with PBS buffer three times and exposed to the secondary antibody (ab150077 Alexa Fluor® 488 goat anti-rabbit IgG (H+L), green) at 2 μg/ml (diluted 1/1000) for 1 hour. Hoechst 33342 was used to stain the cell nuclei (blue). The sample was washed with PBS buffer three times and mounted for imaging.
Antibody staining was used to examine the extrinsic cell death signaling molecules induced by the assemblies of 1b. […]

[6] = TEM of assemblies in aqueous solution; format: physicochemical; details: 1.0 wt %
Procedure: Sample solution (5 sufficient to cover the grid surface) was placed on the grid. Approximately 10 sec later, sample was rinsed by placing a large drop of the ddH2O on parafilm and allowing the grid to touch the water drop, with the sample-loaded surface facing the parafilm. The grid was tilted and water was gently absorbed from the edge of the grid using a filter paper sliver. This procedure was repeated 3 times. Immediately after rinsing, the staining was conducted by placing a large drop of the uranyl acetate (UA) stain solution on parafilm and allowing the grid to touch the stain solution drop, with the sample-loaded surface facing the parafilm. The grid was tilted and the stain solution was gently absorbed from the edge of the grid using a filter paper sliver. Next, the grid was allowed to dry in air and the grid was examined as soon as possible.
To further understand the inhibitory activity of 1a, transmission electron microscopy (TEM) was used to confirm the EISA of 1b. […] In contrast, uniform nanofibers (diameter of 10±2 nm) formed after the addition of ALP (1 U/mL) into the solution of 1a (FIG. 3B). The resulted nanofibers entangled with each other to result in a viscous solution. […] But the direct dissolution of 2b (1.0 wt %) provided an aqueous solution containing nanoribbon with the diameter of 17±2 nm and in several hundred nanometer length (FIG. 4B). These observations, collectively, confirmed that enzymatic reaction modulated the morphology of the assemblies of the cholesterol conjugates, which partially contributed to the different inhibitory activities of 1a, 1b, 2a, and 2b. That is, being exposed to the cancer cell, 1a (or 2a) turns into 1b (or 2b), a process catalyzed by the extra- or intracellular enzymes of the cancer cells; the resulting 1b (or 2b) self-assembled to form nanoscale assemblies that result in death of the cancer cell.

## CC(C)CCC[C@@H](C)C1CC[C@H]2[C@@H]3CC=C4CC(OC(=O)NC(Cc5ccc(OP(=O)(O)O)cc5)C(=O)O)CC[C@]4(C)[C@H]3CC[C@]12C (stereo partly drawn) [1a, Cholesterol-(phospho)D-Tyr]
[1]; 1a 12.5 μM + ALP 1 U/mL, 48 hour co-culture
  cell viability of A2780cis treated by 1a with exogenous ALP: partially rescued
[1]; 1a 12.5 μM + L-Phe or levamisole 1 mM, 48 hours
  cell viability of A2780cis treated by 1a with ALP inhibitors: higher cell viability
[1]; 1a 12.5 μM + zVAD-fmk 50 μM, PJ34 1 μM or Nec-1 45 μM, 48 hours
  cell viability of A2780cis treated by 1a with cell death signaling inhibitors: rescued the cells, but only partially
[1]; 72 hours
  IC50 against A2780cis: 6.3 µg/mL (≈ 9.35 µM)
[1]; Homo sapiens, A2780cis, 48 h, read-out: IC50 against A2780cis, 48 hours
  IC50: 11 µM and 7.7 µg/mL
[1]; incubated with 1a at 24 hours
  cells viable (cell viability test, A2780cis): more than 80%
[1]; read-out: IC50 against A2780cis, 72 hours
  IC50: 9 µM
[2]; 48 hours
  IC50: 45 µM
[2]; 72 hours
  IC50: 35 µM
[3]; 48 hours
  IC50: 19 µM
[3]; 72 hours
  IC50: 13 µM
[4]
  inhibition of A2780 and acquired drug resistance: able to inhibit ovarian cancer cells without acquired drug resistance
[5]
  clustering of DR3 or TNF-R1: rather moderate
  clustering of DR5: significant clustering
[6]; pH 7.4
  morphology in aqueous solution without ALP: disorder aggregates
[6]; pH 7.4, ALP 1 U/mL, 24 hours
  diameter of nanofibers formed after addition of ALP: 10±2 nm

Source: patent publication US11040108B2, “Amino acid- and peptide-steroid conjugates and use thereof” (BRANDEIS UNIVERSITY, priority 2016, dated 2021)
